Values quoted from earlier work, collected in patent US20240245685A1, “PHOSPHODIESTERASE-5 INHIBITOR COMBINATIONS, METHODS OF MAKING, AND METHODS OF USE THEREOF” (VK Research Associates Inc, priority 2020, published 2024).
Read-outs that look alike come from different tables or passages of the source. Blank lines part the entries; values can stand above or below the compound they belong to.

Legend:
[1] = for median time to maximum concentration (t max): oral administration
[2] = not given; remark: listed apart in the source
[3] = oral tadalafil therapy

- absorption profile when administered with a high-fat meal [1]: not found
SMILES: COc1ccc(CN=c2[nH]c(N3CCC[C@H]3CO)ncc2C(=O)NCc2ncccn2)cc1Cl [avanafil]

- median time to maximum concentration (t max) [1]: 1 h
SMILES: CCCc1nn(C)c2c(=O)[nH]c(-c3cc(S(=O)(=O)N4CCN(C)CC4)ccc3OCC)nc12 [sildenafil]

SMILES: CN1CC(=O)N2[C@H](c3ccc4c(c3)OCO4)c3[nH]c4ccccc4c3C[C@@H]2C1=O [tadalafil]
- absorption profile when administered with a high-fat meal [1]: not found
- Dyspepsia incidence (tadalafil 5 mg): 4%
- Headache incidence (tadalafil 5 mg): 11%
- Dyspepsia incidence (tadalafil 10 mg): 8%
- Headache incidence (tadalafil 10 mg): 11%
- Dyspepsia incidence (tadalafil 20 mg): 10%
- Headache incidence (tadalafil 20 mg): 15%
- Dyspepsia Duration ([2]; maximum doses): 15.5 h
- Dyspepsia Mean Duration ([2]; maximum doses): 11.2 h
- Headache Duration ([2]; maximum doses): 24.3 h
- Headache Mean Duration ([2]; maximum doses): 17.0 h
- duration of side effects versus sildenafil ([2]; patients taking tadalafil versus sildenafil): more prolonged
- frequency of headache and dyspepsia versus sildenafil ([2]; tadalafil versus sildenafil): more common
- duration of delayed onset side effects, e.g. gastritis and back pain [3]: up to 3 hours

- median time to maximum concentration (t max) [1]: 1 h
SMILES: CCCc1nc(C)c2c(=O)[nH]c(-c3cc(S(=O)(=O)N4CCN(CC)CC4)ccc3OCC)nn12 [vardenafil]
